Laboratory results from patent US11078205B2, “Selective inhibitors of protein arginine methlytransferase 5 (PRMT5)” (Prelude Therapeutics, Incorporated, priority 2017, dated 2021).
Converted amounts (≈) assume the structure as drawn.

Key:
physchem = conditions: 25 °C, thermodynamic from solid
sDMA in tumor samples = test: sDMA levels in Granta-519 xenograft tumor samples by western blot; assay type: in vivo, mouse; conditions: 12 hours after last dosing
Protocol: Granta-519 cells was maintained in DMEM medium supplemented with 10% fetal bovine serum and 2 mM L-Glutamine at 37° C. in an atmosphere of 5% CO2 in air. Cells in exponential growth phase were harvested and 1×10^7 cells in 0.1 mL of PBS with Matrigel (1:1) were injected subcutaneously at the right lower flank region of each mouse for tumor development. The treatments were started when the mean tumor size reaches approximately 300-400 mm^3. […] Example 47 or vehicle (0.5% Na CMC+0.5% Tween80, suspension) were administered orally (QD for Example 47, QD for vehicle) at a dose of 30 mg/kg and 50 mg/kg for 19 and 16 days, respectively. Body weights and tumor size were measured every 3 to 4 days after randomization. Animals were euthanized 12 hours after last dosing, and blood and tumor samples were collected for analysis.
To measure sDMA levels in tumor samples, tumors from each mouse were weighted and homogenized in RIPA buffer supplemented with protease inhibitor (cOmplete™, EDTA-free Protease Inhibitor Cocktail, Roche). Lysate were centrifuged at 14,000 rpm for 30 min at 4° C. to remove debris. Total protein concentrations of lysate were determined by BCA assay (ThermoFisher Scientific, Catalog #: 23225). Equal amount of total proteins from each tumor were separated on SDS-PAGE gel, and sDMA levels were determined by WB as described previously.

PRMT5/MEP50 complex = PRMT5/MEP50 complex (Homo sapiens (Human), UniProt O14744); test: Biochemical assay: PRMT5/MEP50 methylation of histone H2A with 3H-SAM, filter plate scintillation; conditions: histone H2A 5 μM, SAM 1 μM, PRMT5/MEP50 5 nM
Chain of PRMT5/MEP50 complex (O14744 whole entry): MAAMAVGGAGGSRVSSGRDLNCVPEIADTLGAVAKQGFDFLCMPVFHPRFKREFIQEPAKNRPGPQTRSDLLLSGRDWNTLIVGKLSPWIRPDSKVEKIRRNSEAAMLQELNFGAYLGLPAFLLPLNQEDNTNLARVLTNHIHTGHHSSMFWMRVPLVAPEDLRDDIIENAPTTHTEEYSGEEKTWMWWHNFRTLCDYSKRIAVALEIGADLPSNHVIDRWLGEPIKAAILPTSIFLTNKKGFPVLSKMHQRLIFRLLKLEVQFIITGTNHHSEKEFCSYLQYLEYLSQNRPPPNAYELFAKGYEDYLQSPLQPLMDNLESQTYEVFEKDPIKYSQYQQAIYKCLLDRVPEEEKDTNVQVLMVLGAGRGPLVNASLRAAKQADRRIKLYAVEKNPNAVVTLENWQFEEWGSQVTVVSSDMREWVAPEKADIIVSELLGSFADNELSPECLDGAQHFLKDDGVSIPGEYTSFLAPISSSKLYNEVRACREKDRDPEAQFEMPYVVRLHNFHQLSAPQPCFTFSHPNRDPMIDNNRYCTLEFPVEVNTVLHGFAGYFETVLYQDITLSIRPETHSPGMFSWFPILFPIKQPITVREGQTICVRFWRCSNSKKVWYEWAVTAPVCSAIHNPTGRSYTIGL
Chain of PRMT5/MEP50 complex (Q9BQA1 whole entry partner): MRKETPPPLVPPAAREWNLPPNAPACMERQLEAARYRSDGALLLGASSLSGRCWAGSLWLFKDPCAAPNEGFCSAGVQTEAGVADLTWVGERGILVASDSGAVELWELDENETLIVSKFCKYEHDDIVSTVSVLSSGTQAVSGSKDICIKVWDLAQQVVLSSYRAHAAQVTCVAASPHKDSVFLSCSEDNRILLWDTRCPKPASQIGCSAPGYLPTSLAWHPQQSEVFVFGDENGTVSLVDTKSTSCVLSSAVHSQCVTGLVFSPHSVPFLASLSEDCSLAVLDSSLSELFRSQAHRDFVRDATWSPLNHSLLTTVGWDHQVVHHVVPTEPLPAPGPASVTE
Protocol: Biochemical Assay Protocol
Compounds were solubilized and 3-fold diluted in 100% DMSO. […] Standard reactions were performed in a total volume of 50 μl in assay buffer, with histone H2A (5 μM final) as substrate. To this was added the PRMT5/MEP50 complex diluted to provide a final assay concentration of 5 nM and the compounds were allowed to preincubate for 15 to 20 minutes at room temperature. The reaction was initiated by adding S-[3H-methyl]-adenosyl-L-methionine (PerkinElmer) to final concentration of 1 μM. Following a 60 minutes incubation at 30° C., the reaction was stopped by adding 100 μL of 20% TCA. Each reaction was spotted onto filter plate (Multi Screen FB Filter Plate, Millipore), and washed 5 times with PBS buffer, Scintillation fluid was added to the filter plate and read in a scintillation counter. IC50 values were determined by fitting the data to the standard 4 parameters with Hill Slope using GraphPad Prism software.

Q: For `O=C1C(O)=C([C@H]2CC[C@H](c3ccc(Cl)cc3)CC2)C(=O)c2ccccc21` [Atovaquone], which solubility at 4 h (physchem; fassif) is on record?
A: < 2 µg/mL

Q: What does the source list for `C[C@@]1(O)[C@@H]([C@H](O)c2ccc(Cl)c(Cl)c2)O[C@@H](n2ccc3c(N)ncnc32)[C@@H]1O` [Example 47, (2R,3S,4R,5R)-5-(4-amino-7H-pyrrolo[2,3-d]pyrimidin-7-yl)-2-((R)-(3,4-dichlorophenyl)(hydroxy)methyl)-3-methyltetrahydrofuran-3,4-diol]?
A: inhibition of sDMA (sDMA in tumor samples; 30 mg/kg orally QD): > 90%; sDMA level in tumor (sDMA in tumor samples; 50 mg/kg orally QD): no detectable sDMA

Q: With `C[C@@]1(O)[C@@H]([C@@H](O)c2ccc(Cl)c(Cl)c2)O[C@@H](n2ccc3c(N)ncnc32)[C@@H]1O` [Example 66, (2R,3S,4R,5R)-5-(4-amino-7H-pyrrolo[2,3-d]pyrimidin-7-yl)-2-((S)-(3,4-dichlorophenyl)(hydroxy)methyl)-3-methyltetrahydrofuran-3,4-diol] as the molecule, how does the IC50 (PRMT5/MEP50 complex) read?
A: 707 nM

Q: For `CC(=O)CC(c1ccccc1)c1c(O)c2ccccc2oc1=O` (centres unmarked) [Warfarin], which solubility at 4 h (physchem) is on record?
A: 10 to 25 µg/mL (≈ 32.4 to 81.1 µM)
